“And” between values parts separate entries of the source, which are not always exact repeats. Identical values can stand only once. Like-named read-outs stand apart in the source and are kept apart here. Marks after values point to notes of the source that are not given here.
How the values were obtained:
liver and kidney tissues = test: Antioxidant/oxidant balance: MDA and GSH levels in kidney and liver; type: in vivo, Mus musculus
Procedure: To determine the effects of AFM1 and t-rsv on antioxidant/oxidant balance, malondialdehyde and glutathione levels were measured in the kidney and liver. For this purpose, liver and kidney organs were isolated from each mouse sacrificed under halothane anesthesia and washed with a sterile solution. Liver and kidney organs were homogenized with cold 0.15 M KCl solution. Homogenates were centrifuged at 5000g and 4 °C for 1 h and MDA and GSH analyzes were performed in the supernatant.

leukocyte cell nuclei = type: in vivo, swiss albino mice
Procedure: The protocol of Tice et al.[19] was performed for alkaline single cell gel electrophoresis with slight modifications. Slides were dipped in 1% normal melting point agarose for coating and allowed to dry at 37 °C. 10 µL of peripheral blood were added to 120 µL of 0.5% low-melting-point agarose at 37 °C, layered onto a coated slide, covered with a coverslip and left at 4 °C for 5 min. to solidify the agarose. The coverslip was removed and the slides were immersed into a lysis solution (2.5 M NaCl, 100 mm Na2EDTA, 10 mM Tris–HCl buffer, pH 10, 1% Triton X-100) for approximately 1 h. After lysis, the slides were transferred to a horizontal gel electrophoresis tank with a fresh and cooled alkaline buffer. After a 20 min. DNA unwinding period, electrophoresed at 0.86 V/cm (20 V, 300 mA) for 20 min. […] To prevent DNA damage, all steps were performed in low light and analyzed by fluorescence microscopy. Comets were analyzed with Comet Assay software version 1.2.3b[20] with the parameters of tail DNA length. A total of 600 cells were analyzed for each group, 100 in each animal for DNA damage. The extent of DNA damage was scored from 0 to 4 depending upon the level of DNA damage. […] The total DNA damage per group, expressed as arbitrary units, was calculated using Eq. (2).2 Arbitraryunit=∑i=04Nixi (i: degree of damage (0, 1, 2, 3, 4), Ni: the number of cells in i degree).

[1] = Serum parameters (AST, ALT, BUN, creatinine); type: in vivo, Mus musculus
Procedure: Whole blood samples from mice stunned under halothane anesthesia were collected in vacuum tubes and centrifuged at 1200g at + 4 °C for 10 min. In serum obtained from blood, aspartate aminotransferase (AST, Teco Diagnostics, CAT. NO: A559–150), alanine aminotransferase (ALT, Teco Diagnostics, CAT. NO: A524–150), blood urea nitrogen (BUN, Teco Diagnostics, CAT. NO: B549–150) and creatinine (Teco Diagnostics) levels were measured on a Medispec 99M autoanalyzer using a commercial kit[16].

[2] = type: in vivo, Mus musculus
Procedure: In order to interpret the changes in body weight and organ weights, the weekly feed consumption of the mice was measured. Albino mice can consume approximately 3–4 g of feed in a day[15]. In line with this information, 30 g of feed per day were put into the cages, with 5 g for each mouse in each group. Feed consumption was calculated by measuring the amount of feed remaining in the container at the end of the 7th day of each week during the 28-day application period.

bone marrow cells [3] = type: in vivo, Mus musculus
Procedure: (§1) The genotoxic effects of AFM1 and the genotoxicity reducing effects of t-rsv were determined by MN and CAs analyses. MN test was performed in erythrocyte, buccal mucosa epithelium and leukocyte cells. CAs analyzes were investigated in bone marrow cells. The cytotoxic effects of AFM1 and the cytotoxicity reducing effects of t-rsv were determined by MI in bone marrow cells.
(§2) CAs and MI analysis were determined in the bone marrow. For this aim, mice treated with 0.025% colchicine were sacrificed 2 h later under halothane anesthesia. Bone marrow obtained from the femurs of mice was aspirated, washed with the physiological solution and 0.075 M KCl was transferred. After fixation with Carnoy's solution, samples stained with Giemsa (5%) were examined under a microscope. MI rates and CAs frequencies were determined in the prepared slides and 1.000 cells were analyzed for each group. In prepared slides, MI was determined as the percentage of dividing cells among 1000 nucleated cells for each group. Recovery effects (RE) of t-rsv against AFM1 induced genotoxicity were calculated by using Eq. (1). In determining RE, data belonging to Group VI, where t-rsv provided the highest healing effect, Group IV, in which AFM1 was treated alone, and the control group were used.1 RE%=D1-D2/D3-D2×100 D1: data of AFM1 + t-rsv treated group, D2: Data of AFM1 treated group, D3: data of control.

bone marrow cells [4] = type: in vivo, Mus musculus; remark: listed apart in the source
Procedure: as §1
as §2, with “MI rates and CAs frequencies were determined in the prepared slides and 1.000 cells were analyzed for each group.” left out

[5] = type: in vivo, Mus musculus; remark: listed apart in the source
Procedure: In this study, 36 healthy male Mus musculus (12–14 weeks old, 25–30 g) were used as subjects and obtained from GRU-Experimental Animals Laboratory. Albino mice were maintained in stainless steel cages, at 22 ± 3 °C and 55 ± 5% relative humidity, 12 h light/12 h dark cycle. All experiments were performed in accordance with the guidelines of the Animal Experiments Local Ethics Committee of Giresun University and approved by the Animal Ethics Committee of Giresun University (protocol number: 2017/02). This study was carried out in compliance with the ARRIVE guidelines. Six groups were formed with six mice in each group.
After the mice were stunned under halothane anesthesia, their body weights were measured before the administration period and at the end of the 28-day administration period. In addition, at the end of the 28th day, the liver and kidney organs of the sacrificed mice were isolated and their weights were measured.

albino mice = details: 10 mg/kg and 20 mg/kg doses
[6] = system: buccal mucosa epithelial cells; test: MN test in buccal mucosa epithelial cells; type: in vivo, Mus musculus; details: 20 mg/kg t-rsv against 16 mg/kg AFM1
Procedure: as §1
For the MN test in the buccal mucosa epithelial cells, the mouths of the mice stunned with halothane anesthesia were rinsed with distilled water, and epithelial cells were taken from the left and right buccal mucosa and spread on the slide. Preparations fixed in methanol: acetic acid solution were stained with Fast Green and Feulgen then examined with a research microscope. For the MN test in erythrocytes, blood samples (5 µL) from the tail veins of mice stunned with halothane anesthesia were mixed with EDTA (3%) solution and spread on sterile slides. The preparations were fixed in ethanol (70%) for 2 min. were left to dry at 21 °C for 24 h. Slides were stained with Giemsa (5%) for 15 min. and analyzed under a microscope. For the leukocyte MN test, blood samples were obtained from each mouse and centrifuged at 5000 rpm for 10 min. 5 mL of 0.075 M KCl solution was transferred to the pellet. […]

[7] = rabbit, in vivo; cited from earlier work
[8] = in vivo; cited from earlier work
[9] = Group II: 10 mg/kg b.w. t-rsv, 28 days
[10] = Group III: 20 mg/kg b.w. t-rsv, 28 days
[11] = Group II: 10 mg/kg b.w. t-rsv, 600 cells analyzed
[12] = Group III: 20 mg/kg b.w. t-rsv, 600 cells analyzed

Compound: COc1cc2c(c3oc(=O)c4c(c13)CCC4=O)C1(O)C=COC1O2 (centres unmarked) [AFM1, Aflatoxin M1]
- decrease of kidney GSH level compared to the control group (liver and kidney tissues; mouse, in vivo): 39.3%
- decrease of liver GSH level compared to the control group (liver and kidney tissues; mouse, in vivo): 63.7%
- increase of kidney MDA level compared to the control group (liver and kidney tissues; mouse, in vivo): 1.41 times
- increase of liver MDA level compared to the control group (liver and kidney tissues; mouse, in vivo): 1.22 times
- average DNA damage score (leukocyte cell nuclei; mouse, in vivo, iv, 16 mg/kg): 255.67 ± 16.57
- increase in ALT level compared to the control group ([1]; mouse, in vivo, iv, 16 mg/kg): 35.8%
- increase in AST level compared to the control group ([1]; mouse, in vivo, iv, 16 mg/kg): 33.6%
- increase in BUN level compared to the control group ([1]; mouse, in vivo, iv, 16 mg/kg): 43.6%
- increase in creatinine level compared to the control group ([1]; mouse, in vivo, iv, 16 mg/kg): 58.4%
- Feed consumption, 7th day ([2]; mouse, in vivo, iv, 16 mg/kg): 148.6
- Feed consumption, 14th day ([2]; mouse, in vivo, iv, 16 mg/kg): 147.1
- Feed consumption, 21st day ([2]; mouse, in vivo, iv, 16 mg/kg): 131.1
- Feed consumption, 28th day ([2]; mouse, in vivo, iv, 16 mg/kg): 119.8
- decrease in body weight compared to the control group (mouse, in vivo): 17.5%
- FBW: Final body weight (mouse, in vivo, iv, 16 mg/kg): 41.38 ± 1.98 g
- TWG: Total weight gain (mouse, in vivo, iv, 16 mg/kg): 3.5 g and 3.50^d g
- decrease in MI rate compared to the control group (bone marrow cells [3]; mouse, in vivo): 32.5%
- CAs frequency, Acentric (bone marrow cells [4]; mouse, in vivo, iv, 16 mg/kg): 12.70 ± 0.94^a
- CAs frequency, Break (bone marrow cells [4]; mouse, in vivo, iv, 16 mg/kg): 60.20 ± 4.38^a
- CAs frequency, Dicentric (bone marrow cells [4]; mouse, in vivo, iv, 16 mg/kg): 8.20 ± 0.84^a
- CAs frequency, Fragment (bone marrow cells [4]; mouse, in vivo, iv, 16 mg/kg): 31.80 ± 3.12^a
- CAs frequency, Gap (bone marrow cells [4]; mouse, in vivo, iv, 16 mg/kg): 20.80 ± 2.65^a
- CAs frequency, Ring (bone marrow cells [4]; mouse, in vivo, iv, 16 mg/kg): 48.40 ± 4.15^a
- decrease in kidney weight compared to the control group ([5]; mouse, in vivo): 51.3%
- decrease in liver weight compared to the control group ([5]; mouse, in vivo): 43.1%
- Organ weight, kidney ([5]; mouse, in vivo, iv, 16 mg/kg): 0.74 ± 0.15^d
- Organ weight, liver ([5]; mouse, in vivo, iv, 16 mg/kg): 1.50 ± 0.24^d

Compound: Oc1ccc(/C=C/c2cc(O)cc(O)c2)cc1 [t-rsv, trans-resveratrol]
- decrease in MDA level (liver and kidney tissues; t-rsv with AFM1, liver and kidney, dose not stated): 16%
- DNA damage by t-rsv application alone (leukocyte cell nuclei; Group II and III vs control, p > 0.05): did not induce DNA damage
- protection against abnormalities in serum parameters ([1]; 20 mg/kg t-rsv against AFM1): 45.69–60.3%
- Feed consumption, 7th day ([2]; Group II: 10 mg/kg b.w. t-rsv): 151.9
- Feed consumption, 14th day ([2]; Group II: 10 mg/kg b.w. t-rsv): 152.7
- Feed consumption, 21st day ([2]; Group II: 10 mg/kg b.w. t-rsv): 155.7
- Feed consumption, 28th day ([2]; Group II: 10 mg/kg b.w. t-rsv): 153.2
- Feed consumption, 7th day ([2]; Group III: 20 mg/kg b.w. t-rsv): 157.6
- Feed consumption, 14th day ([2]; Group III: 20 mg/kg b.w. t-rsv): 153.2
- Feed consumption, 21st day ([2]; Group III: 20 mg/kg b.w. t-rsv): 155.6
- Feed consumption, 28th day ([2]; Group III: 20 mg/kg b.w. t-rsv): 151.9
- toxic effect of resveratrol alone (albino mice): did not have a toxic effect
- FBW: Final body weight [9]: 49.91 ± 2.10 g
- TWG: Total weight gain [9]: 11.96^a g
- FBW: Final body weight [10]: 50.66 ± 2.18 g
- TWG: Total weight gain [10]: 12.40^a g
- RE, MI Rate (bone marrow cells [3]; 20 mg/kg t-rsv against 16 mg/kg AFM1): 80.7%
- MI levels (bone marrow cells [3]; control group, 10 mg/kg, 20 mg/kg t-rsv-treated groups): 13.9–14.3%
- reduction in CA types (bone marrow cells [4]; 10 mg/kg and 20 mg/kg t-rsv treatment with AFM1): 22.6–63.9%
- reduction of gap formation (bone marrow cells [4]; 20 mg/kg t-rsv with AFM1): 63.9%
- CAs frequency, Acentric (bone marrow cells [4]; [11]): 0.00 ± 0.00^d
- CAs frequency, Break (bone marrow cells [4]; [11]): 0.00 ± 0.00^d
- CAs frequency, Dicentric (bone marrow cells [4]; [11]): 0.00 ± 0.00^d
- CAs frequency, Fragment (bone marrow cells [4]; [11]): 0.00 ± 0.00^d
- CAs frequency, Gap (bone marrow cells [4]; [11]): 0.00 ± 0.00^d
- CAs frequency, Acentric (bone marrow cells [4]; [12]): 0.00 ± 0.00^d
- CAs frequency, Break (bone marrow cells [4]; [12]): 0.00 ± 0.00^d
- CAs frequency, Dicentric (bone marrow cells [4]; [12]): 0.00 ± 0.00^d
- CAs frequency, Fragment (bone marrow cells [4]; [12]): 0.00 ± 0.00^d
- CAs frequency, Gap (bone marrow cells [4]; [12]): 0.00 ± 0.00^d
- Organ weight, kidney [5, 9]: 1.55 ± 0.30^a
- Organ weight, liver [5, 9]: 2.62 ± 0.34^a
- Organ weight, kidney [5, 10]: 1.53 ± 0.26^a
- Organ weight, liver [5, 10]: 2.65 ± 0.42^a
- RE, MN Buccosal [6]: 48.9%

Compound: Aflatoxin B1 [AFB1]
- body weight loss compared to the control group [7]: approximately 539 g
- reduction of weight gain compared to control [8]: 33.94%

Compound: Aflatoxin G2 [AFG2]
- body weight loss compared to the control group [7]: approximately 539 g

— PMC9411558, “Toxicity mechanisms of aflatoxin M1 assisted with molecular docking and the toxicity-limiting role of trans-resveratrol” (Scientific Reports, 2022)
